Results reported in patent US7645740B2, “Peptide sequence found in Laminin 5 for treating skin impairments” (Laboratoires d'Anjou Centre National de la Recherche …, priority 2004, dated 2010).

Legend:
[1] = system: HT1080 cells (human fibrosarcoma); assay: Cell adhesion test to immobilized peptides, HT1080; type: cell-based
Procedure: (§1) Dose-dependent cell adhesion of cell line HT1080 to various peptides 1, 2 and 3. The peptides were immobilized in 96-well plates at the concentrations given on the abscissa. 8×10^4 cells were deposited in each well and plates were incubated at 37° C. for 1 hour. After washing, attached cells were fixed and cell adhesion was measured as described in the methodology section.
Dose-dependent cell adhesion of HT1080 cells to various peptide TALRIRATYGEY (SEQ ID NO. 1). The peptides were immobilized in 96-well plates in the quantities given on the abscissa. 8×10^4 cells and 15×10^4 cells were deposited in each well and plates were incubated at 37° C. for 1 hour. After washing, attached cells were fixed and cell adhesion was measured as described in the methodology section. Cells were observed by phase contrast microscopy then photographed. Bar =50 μm
(§2) Peptides 1, 2 and 3 were used for the cell adhesion experiments. A range of 7 decreasing concentrations (100 micrograms/ml, 50 micrograms/ml, 25 micrograms/ml, 12.5 micrograms/ml, 6.25 micrograms/ml, 3.125 micrograms/ml and 1.562 micrograms/ml) was made up by successive dilution in PBS (Phosphate Buffer Saline, KH2PO4 1.54 mM; Na2HPO4 1.42 mM; NaCl-131 mM) using a starting solution at a concentration of 1 mg/ml. These solutions were immediately distributed onto a 96-well culture plate (Greinher, Dutscher, Brumath, France) at a rate of 100 μl per well. Plates were then placed at +4° C. for 16 to 18 hours. The solutions were then removed by turning the plates and each well was saturated with a 1% PBS-BSA solution (bovine serum albumin). Three additional wells without the substrate underwent the same treatment and were used as blanks.
(§3) Epithelial cells were detached from the culture dishes using a trypsin/EDAT solution (0.05-0.02%) then suspended in DMEM medium without additives for the cell lines and in KBM-2 without additive for human keratinocytes. The number of seeded cells per well is given in the graphs (50,000 to 100,000 cells per well).
(§4) After cell seeding, the multi-well plates were placed in an incubator at 37° C. under 5% CO2. After incubation for 30 to 60 minutes, cells were observed under a phase contrast microscope in order to verify that the test was conducted correctly. The adhesion medium was then removed and each well was washed in a sterile PBS solution to remove non-adhering cells. The remaining cells, attached to the substrate, were then fixed using a solution of 1% glutaraldehyde in PBS for 15 minutes. The glutaraldehyde solution as removed and the cells were stained with a crystal violet solution diluted to 1% in distilled water for 30 minutes.
After rinsing in water several times, cells were permeabilized by means of a 0.02% triton solution for 15 minutes in order to solubilize the crystal violet. Absorbances were read at 570 nm using an ELISA plate reader (MR500, Dynatech, Guernsey, Channel Islands). Each experimental point was carried out in triplicate. The blank value represented the mean absorbance of 3 control wells (BSA). […] We then calculated the mean for the three absorbance values for each of the triplicate samples.
The results are presented in the form of a graph with the absorbance values on the ordinate and the various substrate concentrations on the abscissa. […]
A second approach was taken in order to determine the minimum quantity of active peptide and the number of adhering cells was increased in order to obtain a confluent cell network. […]

[2] = system: A431 cells (skin epitheloids); assay: Cell adhesion test to immobilized peptides, A431; type: cell-based
Procedure: as §1, with “A431” for “HT1080”
as §2, §3, §4
After rinsing in water several times, cells were permeabilized by means of a 0.02% triton solution for 15 minutes in order to solubilize the crystal violet. Absorbances were read at 570 nm using an ELISA plate reader (MR500, Dynatech, Guernsey, Channel Islands). Each experimental point was carried out in triplicate. The blank value represented the mean absorbance of 3 control wells (BSA). This was subtracted from each of the optical density values for the experimental points. We then calculated the mean for the three absorbance values for each of the triplicate samples.
The results are presented in the form of a graph with the absorbance values on the ordinate and the various substrate concentrations on the abscissa. Attached cells were photographed by phase contrast microscopy.
The following cells from epithelial cell lines were used initially (commonly used in preliminary studies on cell adhesion): • line HT1080 cells (human fibrosarcoma), American Type Culture Collection CCL-121. • line HB100 cells (human mammary epithelium), American Type Culture Collection HTB-124. • line A431 cells (skin epitheliods), American Type Culture Collection CRL-1555.

NHK-young = assay: Cell proliferation test (XTT), NHK-young; type: cell-based, human; details: peptide 0.05% and 0.1%, 5th hour
Procedure: NHK-10 years and NHK-71 years were seeded in 96-well plates at a rate of 10,000 cells per well. After 24 hours, the culture medium was removed and replaced with serum-free medium containing the peptide quantities given in the graphs and reagent XTT. The plates were then placed in the incubator at 37° C. and absorbance readings were taken at 1 h, 2 h, 3 h, 4 h and 5 h. Peptide-free controls were carried out on the same plate.
The effect of the peptide on cell proliferation was analysed with the aid of a calorimetric test (Cell Proliferation Kit XTT, Roche Diagnostics, Meylan, France) on the cells use for the cell adhesion test, i.e. HT1080, A431, HBL100 cells and normal human keratinocytes from young and elderly individuals.
The chemical reaction used in the test is based on the production of NADPH by living cells, leading to the reduction of yellow tetrazolium XTT salts to orange formazan salts. Absorbance was measured at 490 nm using an ELISA plate reader. Cells were seeded in 96-well plates at a rate of 10,000 cells per well (6 wells/condition) in KBM-2 culture medium. After 24 hours in culture at 37° C. with 5% CO2, the culture medium was removed and replaced with serum-free medium containing the peptide quantities given in the graphs and the test reagent. The plates were then placed in the incubator at 37° C. and absorbance readings were taken at 1 h, 2 h, 3 h, 4 h and 5 h. […]

Sequence: TALRIRATYGEY (Human laminin 5) [Peptide 1]
- cell adhesion to immobilized peptide ([1]; HT1080, 0 to 10 micrograms immobilized peptide, 8×10^4 cells per well, 1 hour 37° C., absorbance 570 nm): led to cell adhesion
- immobilized peptide quantity at which adhesion occurred ([1]; HT1080, FIG. 3): 0.15 micrograms
- immobilized peptide quantity at which maximum adhesion was achieved ([1]; HT1080, FIG. 3): 0.15 micrograms
- immobilized peptide quantity at which adhesion occurred ([2]; A431): 0.62 micrograms
- immobilized peptide quantity at which maximum adhesion was achieved ([2]; A431): 1.2 micrograms
- cell adhesion to immobilized peptide ([2]; A431, 0 to 10 micrograms immobilized peptide, 8×10^4 cells per well, 1 hour 37° C., absorbance 570 nm): led to cell adhesion
- mean increase in proliferation compared to the control (NHK-young): ≤ 7%
